According to patent publication US20220155322A1, “USE OF NATRIURETIC PEPTIDES TO ASSESS AND TREAT ACUTE KIDNEY INJURY” (Mayo Foundation for Medical Education and Research, priority 2019, published 2022):
Positions of bridges follow the written chain, without caps; N, C: chain ends. Residues, ends and D or L forms follow the SMILES beside them.

Experiments:
[1] = test system: ischemic AKI model in normal mongrel canines; assay: CNP levels (RIA) and renal NPPC mRNA (RT-PCR) in canine AKI; assay type: in vivo
Caspase7 gene = assay: Caspase7 real time PCR in H/R HRPTC; assay type: cell-based, human; details: H/R with 10^−6 M CRRL269, H/R alone 1.89 fold, normalized to B2M
Experimental: Apoptosis Pathway PCR Array and Caspase7 Real Time PCR: Two groups of HRPTC (vehicle and 10^−6 M CRRL269) that underwent oil induced H/R, and a negative control (Neg Ctrl) group with no H/R stress, were cultured in 6-well plates as described above, and total RNA was collected using the Trizol method (Thermo Fisher Scientific; Waltham, Mass.). RNA was reverse transcribed for cDNA for PCR RT2 array experiments. Apoptosis pathway PCR array (Qiagen; Germantown, Md.) was conducted using the SYBR green (Bio-Rad Laboratories; Hercules, Calif.) method in a Lightcycler 480 (Roche Diagonostics; Indianapolis, Ind.). Raw data were analyzed with the online Qiagen RT2 PCR analysis program. […] A Caspase7 RT-PCR primer (PPH00110C-200, Qiagen) was obtained, and RT-PCR reactions were performed using the SYBR green method in a Lightcycler 480. The B2M gene (primer PPH01094E, Qiagen) was used for normalization.

[2] = test system: ischemic AKI model in normal mongrel canines; assay type: in vivo, canine; details: after ischemia, 16.3 pmol/kg/min
Experimental: Ischemic Acute Kidney Injury in Canines: An ischemic AKI model in normal mongrel canines (male, 25-30 kg, n=5 per group) was created with high dose intravenous indomethacin infusion (10 mg/kg with NaHCO3[5 mg/kg] dissolved in 50 ml distilled water) followed by suprarenal ACC (Sandok et al., J Am Soc Nephrol, 196-202, 1992). Briefly, canines were anesthetized with intravenous pentobarbital (15-30 mg/kg) and fentanyl (4-12 μg/kg), intubated, and mechanically ventilated on air with supplemental oxygen, 3 L/minute, 12 cycles/minute (Harvard Apparatus; […], Mass.). The femoral and carotid arteries were accessed for mean arterial pressure (MAP) monitoring and blood sampling. The femoral vein was cannulated for continuous inulin infusion and saline/indomethacin/drug infusions. The left renal artery was attached with a probe for renal blood flow (RBF) measurement and a catheter was placed in the left ureter for passive urine collection. A flow-directed balloon-tipped thermodilution catheter was advanced to the pulmonary artery through the external jugular vein for measurement of cardiac filling pressures and cardiac output (CO). After a 60 minute equilibration, baseline (BL) characteristics were established. […] GFR values were calculated based on inulin clearance. Urinary sodium was measured with pHOx Ultra (Nova Biomedical; Waltham, Mass.).

[3] = test system: ischemic AKI model in normal mongrel canines; assay: Ischemic AKI in canines: hormonal and renal function; assay type: in vivo, canine
[4] = test system: AKI canine kidneys (renal cortex); assay: Renal injury ex vivo analysis (H&E histology and TUNEL); assay type: in vivo; details: AKI canine kidney cortex, compared to vehicle
Experimental: Histology and TUNEL Analysis: Fixed renal tissues were embedded in paraffin. For histology analysis, paraffin-embedded slides in vehicle (n=5) and CRRL269 (n=5) were stained with hematoxylin and eosin (H&E). A renal pathologist who was blinded to the study examined the H&E stained slides. Renal morphologic injuries such as tubular dilation and vacuolization were evaluated. Renal cortical apoptosis in vehicle (n=5) and CRRL269 (n=5) treated dogs were assessed using a TUNEL assay (Promega; Madison, Wis.) followed the protocol provided by the manufacturer. […] DAPI (Vectashield, Vector Laboratories; Burlingame, Calif.) was used to label the nucleus. TUNEL results were analyzed by confocal fluorescence microscopy (Nikon A50R; Melville, N.Y.).

[5] = test system: human primary renal proximal tubular epithelial cells (HRPTC); assay: Oil immersion induced hypoxia/reoxygenation (H/R) apoptosis, Caspase 3/7 IncuCyte live imaging; assay type: cell-based; design: apoptotic signals in HRPTC after H/R: dose or concentration left out as unconfirmed
Experimental: Oil Immersion Induced Hypoxia/Reoxygenation in vitro: HRPTC (ScienCell Research Laboratories; Carlsbad, Calif.) were seeded in 96-well plates and cultured for 1 day until 70-80% confluence. Passages 3-5 were used for experiments. Caspase 3/7 green apoptosis assay agent (Essen BioScience; Ann Arbor, Mich.) was added to the culture medium for detection of apoptosis. Plates were then transferred to a time-lapsed, live imaging system IncuCyte (Essen BioScience) for apoptosis monitoring for a total of 24 hours. H/R in cells was mimicked with mineral oil (Sigma, St Louis, Mo.) immersion (Meldrum et al., J Surg Res, 99:288-293, 2001). Cells were immersed in oil for 2 hours, washed twice, and placed in fresh medium containing vehicle (H/R group) or drugs. ANP, BNP, and CRRL269 were used at concentrations of 10^−8, 10^−7, or 10^−6 M. PKG (an important cGMP binding protein) activating analogue 8-pCPT-cGMP (Sigma; St. Louis, Mo.), which is specific for PKG and has low affinity for phosphodiesterases, was used at concentrations of 10^−6, 10^−5, or 10^−4 M. Cells were treated with 10^−6-, 5×10^−6-, or 1.5×10^−5 M PKG inhibitor KT-5823 (Abcam; Cambridge, Mass.) for 30 minutes before 10^−6 M CRRL269 was added. Cells without H/R stimulation were labeled as the negative control (Neg Ctrl) group. Apoptosis signals (e.g., apoptosis object counts) were analyzed with software provided by IncuCyte.

[6] = 16.3 pmol/kg/min infusion for 2 hours after ACC, vs vehicle
[7] = 16.3 pmol/kg/min, compared to vehicle
[8] = postischemia phases, 16.3 pmol/kg/min, vs vehicle
[9] = HRPTC, H/R, 10^−8, 10^−7 or 10^−6 M

Structure (SMILES): CC[C@H](C)[C@@H]1NC(=O)[C@H](CCCNC(=N)N)NC(=O)[C@H](CC(=O)O)NC(=O)[C@H](CCSC)NC(=O)[C@H](CCCCN)NC(=O)[C@H](CCCNC(=N)N)NC(=O)CNC(=O)[C@H](Cc2ccccc2)NC(=O)[C@@H](NC(=O)[C@H](CO)NC(=O)[C@H](CO)NC(=O)[C@H](CCCNC(=N)N)NC(=O)[C@H](CCCNC(=N)N)NC(=O)[C@H](CC(C)C)NC(=O)[C@H](CO)NC(=O)[C@H](CCCNC(=N)N)NC(=O)[C@@H]2CCCN2C(=O)[C@H](C)NC(=O)[C@@H](N)[C@@H](C)O)CSSC[C@@H](C(=O)N[C@@H](CC(N)=O)C(=O)N[C@@H](CO)C(=O)N[C@@H](Cc2ccccc2)C(=O)N[C@@H](CCCNC(=N)N)C(=O)N[C@@H](Cc2ccc(O)cc2)C(=O)O)NC(=O)CNC(=O)[C@H](CC(C)C)NC(=O)CNC(=O)[C@H](CO)NC(=O)[C@H](CO)NC(=O)[C@H](CO)NC(=O)[C@H](CO)NC1=O [CRRL269] (H-TAPRSLRRSSCFGRKMDRISSSSGLGCNSFRY-OH; disulfide 11-27)
- cortical NPPC gene expression levels (RT-PCR) ([1]; AKI canine renal cortex, normalized to GAPDH, vs vehicle): elevated
- urinary CNP levels ([1]; AKI canines, 16.3 pmol/kg/min infusion, compared to vehicle): increased
- Caspase7 gene expression level (RT-PCR) (Caspase7 gene): 1.25 fold
- pulmonary capillary wedge pressure (PCWP) [2]: reduced
- right atrial pressure (RAP) [2]: reduced
- plasma cGMP levels [3, 6]: increased
- urinary cGMP levels [3, 6]: increased
- renal parenchyma cGMP levels ([3]; 16.3 pmol/kg/min infusion for 2 hours, ex vivo cortex and medulla): increased
- urinary sodium excretion (UNaV), natriuresis [3, 7]: significantly induced
- urine output (UV), diuresis [3, 7]: significantly induced
- plasma (circulating) ANGII levels ([3]; post-ischemia CL1 to CL4, 16.3 pmol/kg/min, vs vehicle): significantly reduced
- glomerular filtration rate (GFR) [3, 8]: maintained
- renal blood flow (RBF) [3, 8]: maintained
- renal cortex vacuolization (H&E staining) [4]: less vacuolization compared to vehicle
- renal cortical apoptosis (TUNEL assay) [4]: reduced apoptosis
- apoptotic signals in HRPTC after H/R ([5]; CRRL269, compared to H/R group alone): significantly reduced
- anti-apoptotic effect compared to ANP [5, 9]: more robust anti-apototic effects compared to ANP
- anti-apoptotic effect in comparison with BNP [5, 9]: trend of superiority
